Results as given in article PMC3415572 (Journal of medicinal chemistry, 2012).
“Also recorded” adds a separate entry of the source. Where two headings read alike, the source gives them in different places.

Columns and labels:
D3R = D3R (Homo sapiens, UniProt P35462); assay: BRET1-based GoA activation assay, D3R; assay type: cell-based; conditions: for Emax in the Go BRET assay, D3R / efficacy type at D3R (in words): HEK293T; for Emax in the Go BRET assay, D3R: dose-response 100 pM to 100 µM; for efficacy type at D3R (in words): GoA BRET
Sequence of D3R (P35462 whole entry): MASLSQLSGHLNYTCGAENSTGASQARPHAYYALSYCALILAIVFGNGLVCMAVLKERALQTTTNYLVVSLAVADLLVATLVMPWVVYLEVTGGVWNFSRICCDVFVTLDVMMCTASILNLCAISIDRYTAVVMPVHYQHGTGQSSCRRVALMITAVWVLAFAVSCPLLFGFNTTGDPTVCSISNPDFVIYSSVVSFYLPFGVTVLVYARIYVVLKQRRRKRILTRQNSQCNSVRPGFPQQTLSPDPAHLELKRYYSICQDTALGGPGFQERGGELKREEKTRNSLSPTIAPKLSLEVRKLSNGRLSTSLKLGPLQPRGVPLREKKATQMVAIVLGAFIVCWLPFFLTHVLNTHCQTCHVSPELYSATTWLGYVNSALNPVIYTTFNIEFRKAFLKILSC

D2R = D2R (Homo sapiens, UniProt P14416); assay: BRET1-based GoA activation assay, D2R; assay type: cell-based
Sequence of D2R (P14416 1-414 isoform P14416-2): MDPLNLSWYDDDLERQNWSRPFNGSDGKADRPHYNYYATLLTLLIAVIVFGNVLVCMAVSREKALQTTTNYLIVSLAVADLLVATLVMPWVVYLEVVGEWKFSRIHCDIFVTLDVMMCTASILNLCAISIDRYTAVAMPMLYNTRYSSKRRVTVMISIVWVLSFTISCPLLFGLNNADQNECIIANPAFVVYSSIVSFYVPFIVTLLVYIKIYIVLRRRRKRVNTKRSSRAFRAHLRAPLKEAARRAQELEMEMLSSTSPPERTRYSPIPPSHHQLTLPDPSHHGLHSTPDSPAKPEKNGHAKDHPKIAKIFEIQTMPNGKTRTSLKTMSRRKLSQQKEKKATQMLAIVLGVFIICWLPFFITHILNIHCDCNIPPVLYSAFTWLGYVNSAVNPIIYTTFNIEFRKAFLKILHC

[1] = HEK293T, dose-response 100 pM to 100 µM

SMILES | Emax in the Go BRET assay, D3R (D3R) | efficacy type at D3R (in words) (D3R) | also measured
CCCN1CCN(c2cccc(Cl)c2Cl)CC1 [Compound 13, 1-(2,3-Dichlorophenyl)-4-propylpiperazine] | 17.53 % of the Emax of dopamine |  | 
CCN1CCCC1CNC(=O)c1cc(S(N)(=O)=O)ccc1OC (stereo not shown) [Compound 7, sulpiride, reference compound] | −6.83 % of the Emax of dopamine | inverse agonist | shift of dopamine dose-response curve at D3R (D3R; sulpiride 100 nM): dramatically right-shifted the potency of dopamine; efficacy type at D2R (in words) (D2R; GoA BRET, HEK293T): inverse agonist; Emax in the Go BRET assay, D2R (D2R; [1]): −6.26 % of the Emax of dopamine; shift of dopamine dose-response curve at D2R (D2R; sulpiride 100 nM): dramatically right-shifted the potency of dopamine
CCCCN1CCN(c2cccc(Cl)c2Cl)CC1 [Compound 14, 1-Butyl-4-(2,3-dichlorophenyl)piperazine] | 14.13 % of the Emax of dopamine |  | 
CCc1cc(Cl)c(OC)c(C(=O)NC[C@@H]2CCCN2CC)c1O [Compound 3, eticlopride, reference compound] |  | inverse agonist | 
COc1ccccc1N1CCN(CCCCNC(=O)c2cc3ccccc3[nH]2)CC1 [Compound 5] | 8.38 % of the Emax of dopamine | weak partial agonism | efficacy type at D2R (in words) (D2R; GoA BRET, HEK293T): weak partial agonism; Emax in the Go BRET assay, D2R (D2R; [1]): 13.65 % of the Emax of dopamine
CN1CCN(c2cccc(Cl)c2Cl)CC1 [Compound 10, 1-(2,3-Dichlorophenyl)-4-methylpiperazine] | 37.53 % of the Emax of dopamine |  | 
O=C(NCC[C@@H](O)CN1CCN(c2cccc(Cl)c2Cl)CC1)c1cc2ccccc2[nH]1 [Compound 2] |  | weak partial agonism | 
CCC(=O)NCCCCN1CCN(c2ccccc2OC)CC1 [Compound 17] | 7.37 % of the Emax of dopamine |  | 
OCCN1CCN(c2cccc(Cl)c2Cl)CC1 [Compound 12, 2-(4-(2,3-Dichlorophenyl)piperazin-1-yl)ethanol] | 21.08 % of the Emax of dopamine |  | 
COc1ccccc1N1CCNCC1 [Compound 9, 2-OCH3-4-phenylpiperazine] | 6.27 % of the Emax of dopamine | only minimal efficacy | Emax in the Go BRET assay, D2R (D2R): 14.02 % of the Emax of dopamine; efficacy type at D2R (in words) (D2R): only minimal efficacy
O=C(NCCCCN1CCN(c2cccc(Cl)c2Cl)CC1)c1cc2ccccc2[nH]1 [Compound 4, N-(4-(4-(2,3-dichlorophenyl)piperazin-1-yl)butyl)-1H-indole-2-carboxamide] | 16.00 % of the Emax of dopamine | weak partial agonism | efficacy type at D2R (in words) (D2R; GoA BRET, HEK293T): weak partial agonism
COc1ccccc1N1CCN(C)CC1 [Compound 11, 1-(2-Methoxyphenyl)-4-methylpiperazine] | 7.11 % of the Emax of dopamine |  | 
Clc1cccc(N2CCNCC2)c1Cl [Compound 8, 2,3-diCl-4-phenylpiperazine] | 57.27 % of the Emax of dopamine | substantial partial agonism | efficacy type at D2R (in words) (D2R; GoA BRET, HEK293T): substantial partial agonism; Emax in the Go BRET assay, D2R (D2R; [1]): 40.03 % of the Emax of dopamine
NCCc1ccc(O)c(O)c1 [dopamine, reference compound] |  |  | efficacy type at D2R (in words) (D2R): full agonists
CCCCN1CCN(c2ccccc2OC)CC1 [Compound 15, 1-Butyl-4-(2-methoxyphenyl)piperazine] | 9.40 % of the Emax of dopamine |  | 
CCC(=O)NCCCCN1CCN(c2cccc(Cl)c2Cl)CC1 [Compound 16] | 22.32 % of the Emax of dopamine |  | 
CCCCNC(=O)c1cc2ccccc2[nH]1 [Compound 18, N-Butyl-1H-indole-2-carboxamide] | −0.65 % of the Emax of dopamine | no activity; also recorded: failed to activate | 
